The results in this text go back to patent US10993976B2, “Medicament for treating uremia and proteinuria” (Shandong Zhonghai Pharmaceutical CO. LTD, priority 2016, dated 2021).

For this assay, the system named is patient who is suffering from CRF of renal insufficiency at decompensation stage. The assay can be described thus: Clinical application of the medicament in treating uremia and proteinuria (Embodiment 7 test method). The format is in vivo, human. The text has this: Patient selection: choose the patient who is suffering from CRF of renal insufficiency at decompensation stage (The content of SCr is within the range of 186-442 umol/L) to study. The primary disease is chronic glomerulonephritis (CGN) and nephrotic syndrome (NS), except CRF caused by renal arteriosclerosis, diabetic nephropathy and renal cysts.
These investigated patients were randomly divided into groups, 50 patients in each group, aged 19-66 years (mean 44.6±12.6 years), with a course of disease 12-46 months (mean 22.6±8.6 months).
Treatment group 1-6: The patients in embodiment 1-6 received the medicament mentioned of the invention, with a dose of 3 g/day, three times a day.
Control group: The patients received the oral administration of coated aldehyde oxystarch 5 g-10 g, twice a day.
All groups were treated with 1 month as a course of treatment.
The patients stopped using Chinese and western medicine 2 weeks before treatment. […] They were given high quality low protein, low phosphorus and high calorie diet, correction of water and electrolyte disorders and acidosis, and anti-infection, in order to remove those reversible factors that may cause temporary renal dysfunction. Lotensin 5-20 mg was given to the patients with hypertension, once a day, or/and nifedipine 10-20 mg, three or four times a day.
X2 test was used for enumeration data and t test was used for measurement data. […]

Setting [1] is: 50 patients per group, after 3 courses of treatment (1 month each), medicament 3 g/day.
[2] abbreviates: patients, after 3 courses of treatment.

Consider coated aldehyde oxystarch [Contrast], for which, where the note is “50 patients per group, after 3 courses of treatment”, the “Total effective rate (%)” value is given as 64%. Also, under setting [1], the “Effective (case)” value stood at 22 case, the “Ineffective (case)” value came to 18 case and the “Markedly effective (case)” value worked out at 10 case. For the same substance, the “Blood coagulation factor I” value (Fib, patients, after 3 courses of treatment) turned out to be 3.88 ± 0.48 g/L. The Hb (hemoglobin, patients, after 3 courses of treatment) is 82.4 ± 9.5 g/L. This substance came in with a Urine protein (patients, 24 h urine protein, after 3 courses of treatment) of 2.78 ± 1.59 g/24 h. Under setting [2], this substance gave a Blood usea nitrogen of 16.0 ± 6.4 mmol/L, an SCr of 298.5 ± 76.8 µmol/L and a Whole blood viscosity of 4.98 ± 1.0. The Alb (plasma albumin, patients, after 3 courses of treatment) came out at 30.4 ± 3.0 g/L.
